Reference: PubChem BioAssay AID651630 (Sanford-Burnham Center for Chemical Genomics, 2012)
pIC50: −log10 of the molar value. The source made the active and inactive calls.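 The calls were made as follows: active = lipid-stain IC50 at or below a set limit, with nuclear-stain toxicity IC50 at least five times higher; inactive = the rest.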

Experiments:
[1] = system: DAPI; assay: triacylglycerol accumulation inhibitor potency, dose response, cell-based, panel, Nile Red and DAPI fluorescence, H9c2 (AID 651630); conditions: H9c2 cells, DAPI nuclear fluorescence (cytotoxicity counter-readout), oleic acid;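 also: cells exposed to compound overnight before fixation and staining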
[2] = system: TAG; assay: as above; conditions: H9c2 cells, Nile Red TAG fluorescence, oleic acid

With `CCOc1ccc2nc(NC(=O)C3CCCN(S(=O)(=O)c4c(C)noc4C)C3)sc2c1` (stereo not given) the IC50 cytotoxicity (DAPI nuclear signal decrease) ([1]; mean of runs) was > 25 µM (inactive), the IC50 cytotoxicity (DAPI nuclear signal decrease) ([1]; run 1) was greater than 25 µM and the IC50 cytotoxicity (DAPI nuclear signal decrease) ([1]; run 2) was greater than 25 µM. The pIC50 ([2]; mean of runs) was 5.30, the pIC50 ([2]; run 1) was 5.39 and the pIC50 ([2]; run 2) was 5.22.
With `O=[N+]([O-])c1cccc(S(=O)(=O)N2CN(c3ccc(Br)cc3)c3nc4ccccc4nc32)c1` the IC50 cytotoxicity (DAPI nuclear signal decrease) ([1]; mean of runs) was > 25 µM (inactive), the IC50 cytotoxicity (DAPI nuclear signal decrease) ([1]; run 1) was greater than 25 µM and the IC50 cytotoxicity (DAPI nuclear signal decrease) ([1]; run 2) was greater than 25 µM. It also gave a pIC50 ([2]; mean of runs) of 5.08, a pIC50 ([2]; run 1) of 5.08 and a pIC50 ([2]; run 2) of 5.08.
In the case of `Cc1cccc2sc(NC(=O)C3CCCN(S(=O)(=O)c4cccc5nonc45)C3)nc12` (stereo not given), the IC50 cytotoxicity (DAPI nuclear signal decrease) ([1]; mean of runs) was > 25 µM (inactive), the IC50 cytotoxicity (DAPI nuclear signal decrease) ([1]; run 1) was greater than 25 µM and the IC50 cytotoxicity (DAPI nuclear signal decrease) ([1]; run 2) was greater than 25 µM. The pIC50 ([2]; mean of runs) was 4.98, the pIC50 ([2]; run 1) was 4.91 and the pIC50 ([2]; run 2) was 5.06.
With `COc1ccc(-c2cnnc(N/N=C/c3ccc(-c4ccc([N+](=O)[O-])cc4)o3)n2)cc1` the IC50 cytotoxicity (DAPI nuclear signal decrease) ([1]; mean of runs) was > 25 µM (inactive), the IC50 cytotoxicity (DAPI nuclear signal decrease) ([1]; run 1) was greater than 25 µM and the IC50 cytotoxicity (DAPI nuclear signal decrease) ([1]; run 2) was greater than 25 µM. It also gave a pIC50 ([2]; mean of runs) of 4.96, a pIC50 ([2]; run 1) of 4.94 and a pIC50 ([2]; run 2) of 4.98.
With `Cc1cc(C)c2nc(NC(=O)c3ccc([N+](=O)[O-])o3)sc2c1` the IC50 cytotoxicity (DAPI nuclear signal decrease) ([1]; mean of runs) was > 25 µM (inactive), the IC50 cytotoxicity (DAPI nuclear signal decrease) ([1]; run 1) was greater than 25 µM and the IC50 cytotoxicity (DAPI nuclear signal decrease) ([1]; run 2) was greater than 25 µM. For the same compound, the IC50 ([2]; mean of runs) was > 25 µM (inactive), the pIC50 ([2]; run 1) was less than 4.60 and the pIC50 ([2]; run 2) was less than 4.60.
`CC(=O)Nc1ccc(-c2ccnc3c2CC(C(=O)NCc2cccc(Cl)c2)O3)cc1` (stereo not given) was tested, and the IC50 cytotoxicity (DAPI nuclear signal decrease) ([1]; mean of runs) was > 25 µM (inactive), the IC50 cytotoxicity (DAPI nuclear signal decrease) ([1]; run 1) was greater than 25 µM and the IC50 cytotoxicity (DAPI nuclear signal decrease) ([1]; run 2) was greater than 25 µM. For the same compound, the pIC50 ([2]; mean of runs) was 4.88, the pIC50 ([2]; run 1) was 4.80 and the pIC50 ([2]; run 2) was 4.97.
For `CCOC(=O)c1cc(-c2ccccc2)sc1NC(=O)C(C)N1C(=O)NC(C)(c2ccc(Cl)cc2)C1=O` (stereo not given), the IC50 cytotoxicity (DAPI nuclear signal decrease) ([1]; mean of runs) was > 25 µM (inactive), the IC50 cytotoxicity (DAPI nuclear signal decrease) ([1]; run 1) was greater than 25 µM and the IC50 cytotoxicity (DAPI nuclear signal decrease) ([1]; run 2) was greater than 25 µM. It also gave a pIC50 ([2]; mean of runs) of 5.25, a pIC50 ([2]; run 1) of 5.30 and a pIC50 ([2]; run 2) of 5.22.
In the case of `O=C(Nc1sc2c(c1-c1nc3ccccc3[nH]1)CCCC2)C1CCCC1`, the IC50 cytotoxicity (DAPI nuclear signal decrease) ([1]; mean of runs) was > 25 µM (inactive), the IC50 cytotoxicity (DAPI nuclear signal decrease) ([1]; run 1) was greater than 25 µM and the IC50 cytotoxicity (DAPI nuclear signal decrease) ([1]; run 2) was greater than 25 µM. The pIC50 ([2]; mean of runs) was 5.14, the pIC50 ([2]; run 1) was 5.31 and the pIC50 ([2]; run 2) was 5.02.
With `O=C(Nc1ccc(-c2csc(Nc3cccc(C(F)(F)F)c3)n2)cc1)c1cc([N+](=O)[O-])cc(C(F)(F)F)c1` the IC50 cytotoxicity (DAPI nuclear signal decrease) ([1]; mean of runs) was > 25 µM (inactive), the IC50 cytotoxicity (DAPI nuclear signal decrease) ([1]; run 1) was greater than 25 µM and the IC50 cytotoxicity (DAPI nuclear signal decrease) ([1]; run 2) was greater than 25 µM. For the same compound, the pIC50 ([2]; mean of runs) was 4.96, the pIC50 ([2]; run 1) was 4.97 and the pIC50 ([2]; run 2) was 4.96.
In the case of `CCCCCc1cc(=O)oc2c(C(CCN3CCN(c4ccccc4)CC3)c3ccc4c(c3)OCO4)c(OC)cc(OC)c12` (stereo not given), the IC50 cytotoxicity (DAPI nuclear signal decrease) ([1]; mean of runs) was > 25 µM (inactive), the IC50 cytotoxicity (DAPI nuclear signal decrease) ([1]; run 1) was greater than 25 µM and the IC50 cytotoxicity (DAPI nuclear signal decrease) ([1]; run 2) was greater than 25 µM. The pIC50 ([2]; mean of runs) was 5.09, the pIC50 ([2]; run 1) was 5.07 and the pIC50 ([2]; run 2) was 5.12.
In the case of `COc1ccc2[nH]c(C)c(CCNCc3cn(C)c4ccccc34)c2c1`, the IC50 cytotoxicity (DAPI nuclear signal decrease) ([1]; mean of runs) was > 25 µM (inactive), the IC50 cytotoxicity (DAPI nuclear signal decrease) ([1]; run 1) was greater than 25 µM and the IC50 cytotoxicity (DAPI nuclear signal decrease) ([1]; run 2) was greater than 25 µM. For the same compound, the pIC50 ([2]; mean of runs) was 4.97, the pIC50 ([2]; run 1) was 4.99 and the pIC50 ([2]; run 2) was 4.95.
In the case of `COc1ccc(CC(=O)Nc2ccc(-c3ccc4nnc(C)n4n3)cc2)cc1OC`, the IC50 cytotoxicity (DAPI nuclear signal decrease) ([1]; mean of runs) was > 25 µM (inactive), the IC50 cytotoxicity (DAPI nuclear signal decrease) ([1]; run 1) was greater than 25 µM and the IC50 cytotoxicity (DAPI nuclear signal decrease) ([1]; run 2) was greater than 25 µM. The IC50 ([2]; mean of runs) was 16.5 µM (inactive), the pIC50 ([2]; run 1) was 4.82 and the pIC50 ([2]; run 2) was 4.75.
`Clc1ccc(-c2csc(NNC3=NCCCCC3)n2)cc1` gave an IC50 cytotoxicity (DAPI nuclear signal decrease) ([1]; run 1) of 23.9 µM, an IC50 cytotoxicity (DAPI nuclear signal decrease) ([1]; run 2) greater than 25 µM and a pIC50 ([2]; run 1) greater than 6.11. The pIC50 ([2]; run 2) was 6.06.
`O=C(Nc1ccc(-c2csc(Nc3ccccc3)n2)cc1)c1cccc(C(F)(F)F)c1` was tested, and the IC50 cytotoxicity (DAPI nuclear signal decrease) ([1]; mean of runs) was > 25 µM (inactive), the IC50 cytotoxicity (DAPI nuclear signal decrease) ([1]; run 1) was greater than 25 µM and the IC50 cytotoxicity (DAPI nuclear signal decrease) ([1]; run 2) was greater than 25 µM. The pIC50 ([2]; run 1) was 4.82 and the pIC50 ([2]; run 2) was less than 4.60.
For `COc1ccc(-c2cnc3c(NC=O)cc(-c4cccc(NS(C)(=O)=O)c4)cn23)cc1OC`, the IC50 cytotoxicity (DAPI nuclear signal decrease) ([1]; mean of runs) was 21.6 µM (inactive), the IC50 cytotoxicity (DAPI nuclear signal decrease) ([1]; run 1) was 20.1 µM and the IC50 cytotoxicity (DAPI nuclear signal decrease) ([1]; run 2) was 23 µM. It also gave a pIC50 ([2]; mean of runs) of 4.88, a pIC50 ([2]; run 1) of 4.89 and a pIC50 ([2]; run 2) of 4.87.
`COC(=O)c1cc(C(=O)N2CCN(c3ccccc3OC)CC2)cc([N+](=O)[O-])c1` was tested, and the IC50 cytotoxicity (DAPI nuclear signal decrease) ([1]; mean of runs) was > 25 µM (inactive), the IC50 cytotoxicity (DAPI nuclear signal decrease) ([1]; run 1) was greater than 25 µM and the IC50 cytotoxicity (DAPI nuclear signal decrease) ([1]; run 2) was greater than 25 µM. The pIC50 ([2]; mean of runs) was 4.88, the pIC50 ([2]; run 1) was 4.93 and the pIC50 ([2]; run 2) was 4.84.
In the case of `O=C(Nc1ccc([N+](=O)[O-])cn1)c1cc(-c2cccc(Cl)c2)nc2ccccc12`, the IC50 cytotoxicity (DAPI nuclear signal decrease) ([1]; run 1) was greater than 25 µM, the IC50 cytotoxicity (DAPI nuclear signal decrease) ([1]; run 2) was greater than 25 µM and the pIC50 ([2]; mean of runs) was 5.43. The pIC50 ([2]; run 1) was 5.41 and the pIC50 ([2]; run 2) was 5.46.
For `COc1ccc(-c2cc3nc(-c4ccccc4)cc(N4CCN(C(=O)c5ccccc5)CC4)n3n2)cc1`, the IC50 cytotoxicity (DAPI nuclear signal decrease) ([1]; mean of runs) was > 25 µM (inactive), the IC50 cytotoxicity (DAPI nuclear signal decrease) ([1]; run 1) was greater than 25 µM and the IC50 cytotoxicity (DAPI nuclear signal decrease) ([1]; run 2) was greater than 25 µM. For the same compound, the IC50 ([2]; mean of runs) was > 25 µM (inactive), the pIC50 ([2]; run 1) was less than 4.60 and the pIC50 ([2]; run 2) was less than 4.60.
With `Cc1cc(NC(=O)CC2CCCC2)n(-c2nc3ccccc3[nH]2)n1` the IC50 cytotoxicity (DAPI nuclear signal decrease) ([1]; mean of runs) was > 25 µM (inactive), the IC50 cytotoxicity (DAPI nuclear signal decrease) ([1]; run 1) was greater than 25 µM and the IC50 cytotoxicity (DAPI nuclear signal decrease) ([1]; run 2) was greater than 25 µM. For the same compound, the pIC50 ([2]; run 1) was less than 4.60 and the pIC50 ([2]; run 2) was 4.95.
In the case of `OC1CC2CCC(C1)N2CCCN1c2ccccc2Sc2ccc(Cl)cc21` (stereo not given), the IC50 cytotoxicity (DAPI nuclear signal decrease) ([1]; run 1) was 19.4 µM, the IC50 cytotoxicity (DAPI nuclear signal decrease) ([1]; run 2) was greater than 25 µM and the pIC50 ([2]; run 1) was 4.99. For the same compound, the pIC50 ([2]; run 2) was less than 4.60.
In the case of `CCCOc1ccc(F)cc1-c1cc(C(=O)NCc2cc(OC)cc(OC)c2)[nH]n1`, the IC50 cytotoxicity (DAPI nuclear signal decrease) ([1]; mean of runs) was > 25 µM (inactive), the IC50 cytotoxicity (DAPI nuclear signal decrease) ([1]; run 1) was greater than 25 µM and the IC50 cytotoxicity (DAPI nuclear signal decrease) ([1]; run 2) was greater than 25 µM. The pIC50 ([2]; mean of runs) was 5.00, the pIC50 ([2]; run 1) was 4.97 and the pIC50 ([2]; run 2) was 5.03.
In the case of `Cc1cc(C)n(-c2nc3c(c(=O)[nH]c(=O)n3C)n2CC(O)COc2ccc(Cl)cc2Cl)n1` (stereo not given), the IC50 cytotoxicity (DAPI nuclear signal decrease) ([1]; mean of runs) was > 25 µM (inactive), the IC50 cytotoxicity (DAPI nuclear signal decrease) ([1]; run 1) was greater than 25 µM and the IC50 cytotoxicity (DAPI nuclear signal decrease) ([1]; run 2) was greater than 25 µM. It also gave a pIC50 ([2]; run 1) of 4.95 and a pIC50 ([2]; run 2) of less than 4.60.
With `CCOC(=O)Nc1ccc2c(c1)C(=NNC(=S)NC)c1ccccc1-2` the IC50 cytotoxicity (DAPI nuclear signal decrease) ([1]; run 1) was greater than 25 µM, the IC50 cytotoxicity (DAPI nuclear signal decrease) ([1]; run 2) was 9.75 µM and the IC50 ([2]; mean of runs) was > 25 µM (inactive). It also gave a pIC50 ([2]; run 1) of less than 4.60 and a pIC50 ([2]; run 2) of less than 4.60.
`COc1ccc2c(c1)c(CC(=O)Nc1ccc(C)cc1)c(C)n2C(=O)c1ccc(Cl)cc1` was tested, and the IC50 cytotoxicity (DAPI nuclear signal decrease) ([1]; mean of runs) was > 25 µM (inactive), the IC50 cytotoxicity (DAPI nuclear signal decrease) ([1]; run 1) was greater than 25 µM and the IC50 cytotoxicity (DAPI nuclear signal decrease) ([1]; run 2) was greater than 25 µM. For the same compound, the pIC50 ([2]; run 1) was 4.70 and the pIC50 ([2]; run 2) was less than 4.60.
With `CCOC(=O)N1CCN(C(=O)c2ccccc2N(Cc2ccccc2)S(=O)(=O)c2ccc(OC)cc2)CC1` the IC50 cytotoxicity (DAPI nuclear signal decrease) ([1]; mean of runs) was > 25 µM (inactive), the IC50 cytotoxicity (DAPI nuclear signal decrease) ([1]; run 1) was greater than 25 µM and the IC50 cytotoxicity (DAPI nuclear signal decrease) ([1]; run 2) was greater than 25 µM. For the same compound, the IC50 ([2]; mean of runs) was 19.9 µM (inactive), the pIC50 ([2]; run 1) was 4.61 and the pIC50 ([2]; run 2) was 4.81.
